{"source": "patent US20220381790A1", "about": "“SELECTION AND BLOCKADE OF FERTILIZATION COMPETENT MALE AND FEMALE GAMETES” (University of Virginia Patent Foundation, priority 2019, published 2022)", "key": {"[1]": {"system": "C2C12 myoblasts", "assay": "Sperm:myoblast fusion assay", "type": "cell-based, mouse", "conditions": "4 h co-culture; for sperm:myoblast fusion (Calcein-AM+ myoblasts): Calcein-AM labeled sperm, 50 μg/ml GST-BAI1-TSR on sperm, 80 μM EHT-1864, 5 μg/ml Cytochalasin D, 4% PFA; for DiI+ myoblasts (transfer of the dye DiI from the sperm to the myoblasts): DiI-labeled sperm", "description": "To stain sperm with the dyes Calcein-AM or DiI, caudal sperm were allowed to swim in TYH+0.75 mM Methyl-beta-cyclodextrin (MBCD)^67 for 15 min, counted and stained with 4 μM Calcein red orange-AM (Invitrogen) for 30 min in PBS at room temperature or with 5 μg/ml DiI (Invitrogen) for 30 min at 37° C. in HBSS, as previously described^60. Cells were washed, counted and resuspended in DMEM medium supplemented with 20% heat inactivated FBS.\nSperm:myoblast fusion experiments. C2C12 murine skeletal muscle myoblasts (ATCC) were maintained at sub-confluent densities in DMEM medium supplemented with 20% heat inactivated FBS at 37° C., 8.5% CO2. Cells were trypsinized, counted and plated in 4-well LabTek II Permanox chamber slides (25,000 cells/well). After 24 h, myoblasts were treated with appropriate buffer alone, or 5 μg/ml Cytochalasin D (Sigma), 80 μM RAC1 inhibitor (EHT-1864), or incubated with Abs (BAI3 [R&D Systems, MAB39651] or CD9 [BD Biosciences]) for 30 min at 37° C., 8.5% CO2 prior to the sperm co-incubation. Alternatively, myoblasts were fixed with 4% PFA for 20 min and washed several times. Calcein-AM+ sperm (250,000 sperm/well) were added and incubated for 4 h at 37° C., 8.5% CO2. The blocking agents were also present during the co-incubation except for Cytochalasin D, which was used only during the preincubation to avoid affecting the sperm. Sperm were pretreated with 50 μg/ml GST or 50 μg/ml GST-BAI1-TSR for 30 min and then added to the myoblasts. C2C12 myoblasts with shRNA-mediated Elmo2 knockdown have been described previously^25. After the 4 h co-incubation, myoblasts were washed, stained with Hoechst and mounted. Cells were analyzed the same day and 6-8 fields/well were photographed using the Axio Imager 2 with Apotome (Zeiss). Image J cell counter plugin software was used to quantitate nuclei number. The fusion index was calculated as the percentage of Calcein AM^+ myoblasts in the experimental group normalized to the control untreated cells."}, "[2]": {"system": "sperm", "assay": "Sperm progressive motility", "type": "cell-based, mouse", "conditions": "for progressive motility of the sperm: 10 μg/ml Annexin V, 50 μg/ml GST or 50 μg/ml GST-BAI1-TSR", "description": "To evaluate the role of PtdSer exposed on sperm, cumulus oocyte complexes (n=30-60) were inseminated with 2-4×10^4 sperm capacitated for 60-90 min in TYH+BSA (in most of the experiments) or in TYH+MBCD^67 (in the experiment to test the effect of Annexin V in fertilization, FIG. 1K). During the last 30 min of capacitation, sperm were incubated with 10 μg/ml Annexin V (Ebiosciences), 50 μg/ml GST or 50 μg/ml GST-BAI1-TSR. After co-culture of oocytes and sperm in 100 μl drops of high calcium human tubal fluid (HTF) supplemented with 1 mM reduced glutathione (GSH) medium for 4 hours^67, eggs were washed several times and transferred to KSOM medium (EMD Millipore). The percentage of 2-cell embryos (fertilized eggs) was determined at 24 hours post insemination. Sperm motility upon incubation with control medium, Annexin V, GST or GST-BAI1-TSR was graded as progressive motility, non-progressive motility, and immotility, according to the criteria of the 5th Edition of the World Health Organization (WHO) Laboratory Manual for the Examination and Processing of Human Semen. The non-progressive motility and immotility numbers were grouped together. To test the soluble head group of PtdSer, O-Phospho-L-Serine (Sigma) and its control O-Phospho-D-Serine (Sigma) in IVF assays, ˜20 ZP-free oocytes isolated from wt mice were incubated 1×10^3 capacitated sperm in 20-μl droplets for 1 h in the presence of 1 mM O-Phospho-L-Serine or O-Phospho-D-Serine. After washes and an overnight incubation the percentage of 2-cell embryos was evaluated."}, "[3]": {"system": "PtdSer exposed on sperm", "assay": "In vitro fertilization assay, masking PtdSer on sperm", "type": "cell-based, mouse", "conditions": "2-cell embryos at 24 h", "description": "In vitro fertilization (IVF) assays. IVF was performed as previously described^68. Briefly, 4-5 week old female mice were super-ovulated by intraperitoneal injections of 5 IU of pregnant mare serum gonadotropin (PMSG, Prospec) and 5 IU of human chorionic gonadotropin (hCG, Sigma) 48 hours (h) later. Metaphase II oocytes were recovered 13 h after hCG, and were: 1) directly used as cumulus oocyte complexes (COC), 2) freed from cumulus cells by a brief incubation with 3 mg/ml hyaluronidase (Sigma) in 0.01% poly vinyl alcohol (PVA)/FHM medium (EMD Millipore). These oocytes were labeled as Zona pellucida (ZP)-intact oocytes; or 3) freed from cumulus cells and ZP using Tyrode's solution (Sigma) (ZP-free oocytes). Sperm were collected from the cauda epididymides of adult (>10 week-old) wild-type male mice and capacitated for 90 min in TYH+BSA medium (described above, Sperm staining section). […]\nTo evaluate the role of PtdSer exposed on sperm, cumulus oocyte complexes (n=30-60) were inseminated with 2-4×10^4 sperm capacitated for 60-90 min in TYH+BSA (in most of the experiments) or in TYH+MBCD^67 (in the experiment to test the effect of Annexin V in fertilization, FIG. 1K). […] The percentage of 2-cell embryos (fertilized eggs) was determined at 24 hours post insemination. […] After washes and an overnight incubation the percentage of 2-cell embryos was evaluated."}, "[4]": {"conditions": "annexin V for PS; cited from earlier work"}, "[5]": {"system": "ZP-free wild-type oocytes", "assay": "Binding of 2 μm carboxylate modified beads to oocytes", "type": "cell-based, mouse", "conditions": "beads pretreated with 50 μg/ml GST-BAI1-TSR for 30 min; oocytes with >5 bound beads scored", "description": "The presence of functional PtdSer receptors on mouse ZP-free wild-type oocytes was evaluated by incubation with 2 μm carboxylate modified red (580/605) beads (1:400, Invitrogen, FluoSpheres) for 2 h in TYH+BSA at 37° C., 5% CO2. Beads were pre-treated with medium only, 50 μg/ml GST or 50 μg/ml GST-BAI1-TSR for 30 min. Oocytes were washed 6 times in TYH+BSA, stained with CD9 antibody for 30 min at 37° C., 5% CO2 in TYH+BSA, fixed in 4% PFA+1% BSA and stained with Hoechst. The percentage of oocytes with bound beads was determined by microscopy. We scored oocytes with >5 bound beads, since accurately counting individual beads, particularly in oocytes of the control groups that bound multiple beads was unfeasible."}, "[6]": {"system": "ZP-free oocytes", "assay": "In vitro fertilization assay, competition with soluble head group of PtdSer", "type": "cell-based, mouse", "conditions": "1 mM, ZP-free oocytes with capacitated sperm for 1 h, 2-cell embryos after overnight incubation", "description": "In vitro fertilization (IVF) assays. IVF was performed as previously described^68. Briefly, 4-5 week old female mice were super-ovulated by intraperitoneal injections of 5 IU of pregnant mare serum gonadotropin (PMSG, Prospec) and 5 IU of human chorionic gonadotropin (hCG, Sigma) 48 hours (h) later. Metaphase II oocytes were recovered 13 h after hCG, and were: 1) directly used as cumulus oocyte complexes (COC), 2) freed from cumulus cells by a brief incubation with 3 mg/ml hyaluronidase (Sigma) in 0.01% poly vinyl alcohol (PVA)/FHM medium (EMD Millipore). These oocytes were labeled as Zona pellucida (ZP)-intact oocytes; or 3) freed from cumulus cells and ZP using Tyrode's solution (Sigma) (ZP-free oocytes). Sperm were collected from the cauda epididymides of adult (>10 week-old) wild-type male mice and capacitated for 90 min in TYH+BSA medium (described above, Sperm staining section). All the incubations were performed in medium drops under paraffin oil (Sigma) at 37° C., 5% CO2 atmosphere. To evaluate the role of PtdSer exposed on sperm, cumulus oocyte complexes (n=30-60) were inseminated with 2-4×10^4 sperm capacitated for 60-90 min in TYH+BSA (in most of the experiments) or in TYH+MBCD^67 (in the experiment to test the effect of Annexin V in fertilization, FIG. 1K). During the last 30 min of capacitation, sperm were incubated with 10 μg/ml Annexin V (Ebiosciences), 50 μg/ml GST or 50 μg/ml GST-BAI1-TSR. After co-culture of oocytes and sperm in 100 μl drops of high calcium human tubal fluid (HTF) supplemented with 1 mM reduced glutathione (GSH) medium for 4 hours^67, eggs were washed several times and transferred to KSOM medium (EMD Millipore). The percentage of 2-cell embryos (fertilized eggs) was determined at 24 hours post insemination. […] After washes and an overnight incubation the percentage of 2-cell embryos was evaluated."}, "[7]": {"system": "RAC1 in ZP-free oocytes", "assay": "Sperm DNA decondensation assay with RAC1 inhibitor", "type": "cell-based, mouse", "conditions": "80 μM, oocytes preincubated 1-2 h, inhibitor present during 1 h insemination", "description": "To evaluate the role of RAC1, ZP-free oocytes were prepared as described above, loaded with 10 μg/ml DAPI (BioRad) for 20 min at 37° C., 5% CO2, and washed several times in TYH+BSA 3. Twenty oocytes, either untreated or previously incubated with RAC1 inhibitor (80 μM, EHT-1864, Sigma) for 1-2 h were inseminated with 1000 capacitated sperm for 1 h in 20 μl drops of TYH+BSA medium at 37° C., 5% CO2. RAC1 inhibitor was also present the fertilization steps. After 3 washes, oocytes were fixed in 0.25% glutaraldehyde and 0.1% paraformaldehyde for 20 min at room temperature, washed and mounted. The percentage of oocytes with DAPI^+ decondensed sperm nuclei (typically 1-2/oocyte) was evaluated by microscopy."}}, "note": "“Also recorded” adds a separate entry of the source.", "data": [{"molecule": "C=C1[C@@H](C)[C@H]2[C@H](Cc3ccccc3)NC(=O)[C@]23[C@H](OC(C)=O)/C=C/[C@@](C)(O)C(=O)[C@@H](C)C/C=C/[C@H]3[C@@H]1O", "note": "[cytochalasin D, reference compound]", "values": [{"measurement": "sperm:myoblast fusion (Calcein-AM+ myoblasts)", "setting": "[1]", "result": "abrogated"}]}, {"molecule": "GST: glutathione-S-transferase control protein, SEQ ID NO: 1 [reference compound]", "values": [{"measurement": "progressive motility of the sperm", "setting": "[2]", "result": "No significant differences"}]}, {"molecule": "Annexin V: PtdSer-binding protein reagent (Ebiosciences) used to mask PtdSer on sperm; highest affinity of the three blocking agents", "values": [{"measurement": "reduction in fertilization", "setting": "[3]; 10 μg/ml Annexin V on capacitated caudal sperm, in three out of four independent experiments", "result": "> 85", "unit": "%"}, {"measurement": "progressive motility of the sperm", "setting": "[2]", "result": "not affected; also recorded: No significant differences"}, {"measurement": "Kd", "setting": "[4]", "result": 6.6, "unit": "nM"}]}, {"molecule": "BAI1-TSR: soluble extracellular fragment of the PtdSer recognition receptor BAI1 (residues 202-585) fused to glutathione-S-transferase; SEQ ID NOs: 1 and 2", "values": [{"measurement": "effect on fertilization (2-cell embryos)", "setting": "[3]; sperm incubated with 50 μg/ml GST-BAI1-TSR", "result": "significantly reduced fertilization"}, {"measurement": "progressive motility of the sperm", "setting": "[2]", "result": "not affected"}, {"measurement": "progressive motility of the sperm", "setting": "[2]; listed as GST-BAI1-TSR", "result": "No significant differences"}, {"measurement": "binding of carboxylate modified beads to oocytes", "setting": "[5]", "result": "significantly decreased"}, {"measurement": "sperm:myoblast fusion (Calcein-AM+ myoblasts)", "setting": "[1]", "result": "significantly decreased the fusion"}]}, {"molecule": "N[C@H](COP(=O)(O)O)C(=O)O", "note": "[Phospho-D-Serine, O-Phospho-D-Serine]", "values": [{"measurement": "effect on fertilization (2-cell embryos)", "setting": "[6]", "result": "did not inhibit fertilization"}]}, {"molecule": "O=c1cc(CN2CCOCC2)occ1OCCCCCSc1ccnc2cc(C(F)(F)F)ccc12", "note": "[EHT-1864, reference compound]", "values": [{"measurement": "sperm motility", "setting": "[2]; sperm incubated with EHT-1864 alone under the assay conditions", "result": "no reduction in the motility"}, {"measurement": "number of oocytes with decondensed sperm DNA", "setting": "[7]", "result": "significant reduction"}, {"measurement": "sperm:myoblast fusion (Calcein-AM+ myoblasts)", "setting": "[1]", "result": "potently blocked"}, {"measurement": "DiI+ myoblasts (transfer of the dye DiI from the sperm to the myoblasts)", "setting": "[1]", "result": "blocked"}]}, {"molecule": "paraformaldehyde", "values": [{"measurement": "sperm:myoblast fusion (Calcein-AM+ myoblasts)", "setting": "[1]", "result": "abrogated"}, {"measurement": "DiI+ myoblasts (transfer of the dye DiI from the sperm to the myoblasts)", "setting": "[1]", "result": "blocked"}]}, {"molecule": "N[C@@H](COP(=O)(O)O)C(=O)O", "note": "[Phospho-L-Serine, O-Phospho-L-Serine]", "values": [{"measurement": "effect on fertilization (2-cell embryos)", "setting": "[6]", "result": "significant reduction in fertilization"}, {"measurement": "inhibition at 1000 µM", "setting": "[6]; Mus musculus, Oocyte, read-out: partial inhibition of fertilization", "result": "30 to 40", "unit": "%"}]}]}
